Reference: patent publication US11166893B2, “Topical hirsutism treatment” (BMG PHARMA SRL, priority 2015, dated 2021)

System: growth of superfluous hair
Assay: Inhibition of superfluous hair growth evaluated by the Trichoscan method
Assay type: in vivo
Details: 10% capryloyl glycine cream, topical, compared with eflornithine efficacy reported in Eur. J Dermatol 2008, 18 (1): 65-70
Protocol: The ability of capryloyl glycine to inhibit the growth of superfluous hair was evaluated by the Trichoscan® method (http://trichoscan.com/pages/english/professional-info/reference-values.php).

For CCCCCCCC(=O)NCC(=O)O [capryloyl glycine], the “ability to inhibit the growth of superfluous hair (efficacy)” value was “efficacy comparable to that of eflornithine”.
